Data reported in paper PMC6199309, “A therapeutic approach to pantothenate kinase associated neurodegeneration” (Nature Communications, 2018).
Where two headings read alike, the source gives them in different places.

Columns and labels:
ADCK3 = biological target: T1, ADCK3 (Homo sapiens, UniProt Q8NI60); test: KINOMEscan; assay type: binding; settings: read-out: %Ctrl @ 10000nM
T1 construct: purchased DiscoverX KINOMEscan

AKT3 = biological target: T2, AKT3 (Homo sapiens, UniProt Q9Y243); test: KINOMEscan; assay type: binding; settings: read-out: %Ctrl @ 10000nM
T2 construct: purchased DiscoverX KINOMEscan

BMPR2 = biological target: T3, BMPR2 (Homo sapiens, UniProt Q13873); test: KINOMEscan; assay type: binding; settings: read-out: %Ctrl @ 10000nM
T3 construct: purchased DiscoverX KINOMEscan

CDK5 = biological target: T4, CDK5 (Homo sapiens, UniProt Q00535); test: KINOMEscan; assay type: binding; settings: read-out: %Ctrl @ 10000nM
T4 construct: purchased DiscoverX KINOMEscan

CLK3 = biological target: T5, CLK3 (Homo sapiens, UniProt P49761); test: KINOMEscan; assay type: binding; settings: read-out: %Ctrl @ 10000nM
T5 construct: purchased DiscoverX KINOMEscan

CTK = biological target: T6, CTK (Homo sapiens, UniProt P42679); test: KINOMEscan; assay type: binding; settings: read-out: %Ctrl @ 10000nM
T6 construct: purchased DiscoverX KINOMEscan

FLT3(R834Q) = biological target: T7, FLT3(R834Q) (Homo sapiens, UniProt P36888, R834Q); test: KINOMEscan; assay type: binding; settings: read-out: %Ctrl @ 10000nM
T7 construct: purchased DiscoverX KINOMEscan

GSK3B = biological target: T8, GSK3B (Homo sapiens, UniProt P49841); test: KINOMEscan; assay type: binding; settings: read-out: %Ctrl @ 10000nM
T8 construct: purchased DiscoverX KINOMEscan

IRAK3 = biological target: T9, IRAK3 (Homo sapiens, UniProt Q9Y616); test: KINOMEscan; assay type: binding; settings: read-out: %Ctrl @ 10000nM
T9 construct: purchased DiscoverX KINOMEscan

ITK = biological target: T10, ITK (Homo sapiens, UniProt Q08881); test: KINOMEscan; assay type: binding; settings: read-out: %Ctrl @ 10000nM
T10 construct: purchased DiscoverX KINOMEscan

[1] = biological target: T11, JAK2(JH1domain-catalytic) (Homo sapiens, UniProt O60674); test: KINOMEscan; assay type: binding; settings: read-out: %Ctrl @ 10000nM
T11 construct: JAK2(JH1domain-catalytic); purchased DiscoverX KINOMEscan

JNK1 = biological target: T12, JNK1 (Homo sapiens, UniProt P45983); test: KINOMEscan; assay type: binding; settings: read-out: %Ctrl @ 10000nM
T12 construct: purchased DiscoverX KINOMEscan

LTK = biological target: T13, LTK (Homo sapiens, UniProt P29376); test: KINOMEscan; assay type: binding; settings: read-out: %Ctrl @ 10000nM
T13 construct: purchased DiscoverX KINOMEscan

MAP3K1 = biological target: T14, MAP3K1 (Homo sapiens, UniProt Q13233); test: KINOMEscan; assay type: binding; settings: read-out: %Ctrl @ 10000nM
T14 construct: purchased DiscoverX KINOMEscan

MAP3K4 = biological target: T15, MAP3K4 (Homo sapiens, UniProt Q9Y6R4); test: KINOMEscan; assay type: binding; settings: read-out: %Ctrl @ 10000nM
T15 construct: purchased DiscoverX KINOMEscan

MARK1 = biological target: T16, MARK1 (Homo sapiens, UniProt Q9P0L2); test: KINOMEscan; assay type: binding; settings: read-out: %Ctrl @ 10000nM
T16 construct: purchased DiscoverX KINOMEscan

MEK6 = biological target: T17, MEK6 (Homo sapiens, UniProt P52564); test: KINOMEscan; assay type: binding; settings: read-out: %Ctrl @ 10000nM
T17 construct: purchased DiscoverX KINOMEscan

MRCKA = biological target: T18, MRCKA (Homo sapiens, UniProt Q5VT25); test: KINOMEscan; assay type: binding; settings: read-out: %Ctrl @ 10000nM
T18 construct: purchased DiscoverX KINOMEscan

MYO3B = biological target: T19, MYO3B (Homo sapiens, UniProt Q8WXR4); test: KINOMEscan; assay type: binding; settings: read-out: %Ctrl @ 10000nM
T19 construct: purchased DiscoverX KINOMEscan

PAK2 = biological target: T20, PAK2 (Homo sapiens, UniProt Q13177); test: KINOMEscan; assay type: binding; settings: read-out: %Ctrl @ 10000nM
T20 construct: purchased DiscoverX KINOMEscan

PAK7 = biological target: T21, PAK7 (Homo sapiens, UniProt Q9P286); test: KINOMEscan; assay type: binding; settings: read-out: %Ctrl @ 10000nM
T21 construct: purchased DiscoverX KINOMEscan

PFCDPK1(P.falciparum) = biological target: T22, PFCDPK1(P.falciparum) (Plasmodium falciparum, UniProt P62344); test: KINOMEscan; assay type: binding; settings: read-out: %Ctrl @ 10000nM
T22 construct: purchased DiscoverX KINOMEscan

PFTK1 = biological target: T23, PFTK1 (Homo sapiens, UniProt O94921); test: KINOMEscan; assay type: binding; settings: read-out: %Ctrl @ 10000nM
T23 construct: purchased DiscoverX KINOMEscan

PKAC-alpha = biological target: T24, PKAC-alpha (Homo sapiens, UniProt P17612); test: KINOMEscan; assay type: binding; settings: read-out: %Ctrl @ 10000nM
T24 construct: purchased DiscoverX KINOMEscan

PRKCI = biological target: T25, PRKCI (Homo sapiens, UniProt P41743); test: KINOMEscan; assay type: binding; settings: read-out: %Ctrl @ 10000nM
T25 construct: purchased DiscoverX KINOMEscan

PRKD2 = biological target: T26, PRKD2 (Homo sapiens, UniProt Q9BZL6); test: KINOMEscan; assay type: binding; settings: read-out: %Ctrl @ 10000nM
T26 construct: purchased DiscoverX KINOMEscan

PRP4 = biological target: T27, PRP4 (Homo sapiens, UniProt Q13523); test: KINOMEscan; assay type: binding; settings: read-out: %Ctrl @ 10000nM
T27 construct: purchased DiscoverX KINOMEscan

[2] = biological target: T28, RSK4(Kin.Dom.1-N-terminal) (Homo sapiens, UniProt Q9UK32); test: KINOMEscan; assay type: binding; settings: read-out: %Ctrl @ 10000nM
T28 construct: RSK4(Kin.Dom.1-N-terminal); purchased DiscoverX KINOMEscan

SRMS = biological target: T29, SRMS (Homo sapiens, UniProt Q9H3Y6); test: KINOMEscan; assay type: binding; settings: read-out: %Ctrl @ 10000nM
T29 construct: purchased DiscoverX KINOMEscan

TBK1 = biological target: T30, TBK1 (Homo sapiens, UniProt Q9UHD2); test: KINOMEscan; assay type: binding; settings: read-out: %Ctrl @ 10000nM
T30 construct: purchased DiscoverX KINOMEscan

TLK2 = biological target: T31, TLK2 (Homo sapiens, UniProt Q86UE8); test: KINOMEscan; assay type: binding; settings: read-out: %Ctrl @ 10000nM
T31 construct: purchased DiscoverX KINOMEscan

TNIK = biological target: T32, TNIK (Homo sapiens, UniProt Q9UKE5); test: KINOMEscan; assay type: binding; settings: read-out: %Ctrl @ 10000nM
T32 construct: purchased DiscoverX KINOMEscan

VRK2 = biological target: T33, VRK2 (Homo sapiens, UniProt Q86Y07); test: KINOMEscan; assay type: binding; settings: read-out: %Ctrl @ 10000nM
T33 construct: DNA label for qPCR (T7 phage fusion or DNA tag); purchased DiscoverX scanMAX; host or cells: E. coli BL21-derived (T7 phage) or HEK-293

WNK1 = biological target: T34, WNK1 (Homo sapiens, UniProt Q9H4A3); test: KINOMEscan; assay type: binding; settings: read-out: %Ctrl @ 10000nM
T34 construct: DNA label for qPCR (T7 phage fusion or DNA tag); purchased DiscoverX scanMAX; host or cells: E. coli BL21-derived (T7 phage) or HEK-293

PAMPA-BBB = assay type: in vitro ADME; settings: BBB = Blood Brain Barrier, read-out: PAMPA-BBB, Avg Pe
[3] = Pharmacokinetics in plasma of male BALB/c mice; assay type: in vivo; settings: mouse
Experimental: Supplementary Table 2. […] Mean pharmacokinetic parameters of PZ- […]
administration to male BALB/c micea.
Dose Tmax C0/ Cmaxc AUClast AUCinf T1/2 CL Vss %Fd […]
aPharmacokinetics measurements performed by Sai Life Sciences Limited. […]
cBack extrapolated concentration for i.v. group. dBioavailability was calculated based on AUClast.

GRK3 = biological target: T35, GRK3 (Homo sapiens, UniProt P35626); test: KINOMEscan KdELECT; assay type: binding
T35 construct: DNA tag for qPCR (T7 phage fusion or DNA label); purchased DiscoverX KdELECT; host or cells: E. coli BL21-derived (T7 phage) or HEK-293

T16 sequence (Q9P0L2 whole entry): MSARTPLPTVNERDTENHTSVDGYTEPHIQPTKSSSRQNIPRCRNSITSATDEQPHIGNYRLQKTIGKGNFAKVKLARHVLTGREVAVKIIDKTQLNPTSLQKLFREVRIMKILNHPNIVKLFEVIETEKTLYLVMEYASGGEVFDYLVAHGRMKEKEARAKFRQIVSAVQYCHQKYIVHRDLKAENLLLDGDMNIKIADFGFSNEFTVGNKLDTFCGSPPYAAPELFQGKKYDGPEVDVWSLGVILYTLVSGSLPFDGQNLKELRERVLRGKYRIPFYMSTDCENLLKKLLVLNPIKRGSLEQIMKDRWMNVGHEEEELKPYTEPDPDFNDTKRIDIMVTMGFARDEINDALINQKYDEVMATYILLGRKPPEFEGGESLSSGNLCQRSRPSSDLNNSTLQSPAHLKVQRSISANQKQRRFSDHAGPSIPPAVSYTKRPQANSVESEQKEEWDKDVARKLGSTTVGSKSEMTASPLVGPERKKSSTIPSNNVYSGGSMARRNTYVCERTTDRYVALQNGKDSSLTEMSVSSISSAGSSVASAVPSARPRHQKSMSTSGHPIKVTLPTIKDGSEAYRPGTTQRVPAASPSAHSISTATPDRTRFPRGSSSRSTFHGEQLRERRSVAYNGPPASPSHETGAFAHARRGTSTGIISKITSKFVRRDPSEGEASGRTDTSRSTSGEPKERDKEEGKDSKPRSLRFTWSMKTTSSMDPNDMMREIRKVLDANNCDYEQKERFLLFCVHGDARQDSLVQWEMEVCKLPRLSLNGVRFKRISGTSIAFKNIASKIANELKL
T28 sequence (Q9UK32 1-400 limits assumed): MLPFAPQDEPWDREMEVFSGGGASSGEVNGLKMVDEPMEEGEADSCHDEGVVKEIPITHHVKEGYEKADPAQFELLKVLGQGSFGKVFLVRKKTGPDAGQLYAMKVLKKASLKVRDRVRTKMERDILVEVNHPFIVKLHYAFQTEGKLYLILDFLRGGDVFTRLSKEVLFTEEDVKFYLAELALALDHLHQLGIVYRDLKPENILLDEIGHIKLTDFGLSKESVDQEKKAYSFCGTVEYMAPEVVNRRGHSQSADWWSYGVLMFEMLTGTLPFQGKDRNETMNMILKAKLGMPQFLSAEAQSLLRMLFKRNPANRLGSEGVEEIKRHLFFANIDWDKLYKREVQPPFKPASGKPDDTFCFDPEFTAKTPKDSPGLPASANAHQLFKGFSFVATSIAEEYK
T22 sequence (P62344 whole entry): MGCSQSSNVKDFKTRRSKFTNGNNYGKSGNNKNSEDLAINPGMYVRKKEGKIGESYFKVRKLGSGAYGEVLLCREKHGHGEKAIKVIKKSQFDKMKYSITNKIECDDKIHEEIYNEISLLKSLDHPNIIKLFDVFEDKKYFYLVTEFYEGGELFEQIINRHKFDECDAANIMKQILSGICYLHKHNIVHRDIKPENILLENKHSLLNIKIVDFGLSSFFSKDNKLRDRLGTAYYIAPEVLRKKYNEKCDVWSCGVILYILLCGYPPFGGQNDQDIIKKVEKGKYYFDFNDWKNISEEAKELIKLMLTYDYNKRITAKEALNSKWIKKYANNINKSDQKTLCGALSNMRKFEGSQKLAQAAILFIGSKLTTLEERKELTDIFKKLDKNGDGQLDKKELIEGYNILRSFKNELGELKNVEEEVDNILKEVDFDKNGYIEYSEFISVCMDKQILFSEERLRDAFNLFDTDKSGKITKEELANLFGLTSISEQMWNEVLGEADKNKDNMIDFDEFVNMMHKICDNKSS
T9 sequence (Q9Y616 whole entry): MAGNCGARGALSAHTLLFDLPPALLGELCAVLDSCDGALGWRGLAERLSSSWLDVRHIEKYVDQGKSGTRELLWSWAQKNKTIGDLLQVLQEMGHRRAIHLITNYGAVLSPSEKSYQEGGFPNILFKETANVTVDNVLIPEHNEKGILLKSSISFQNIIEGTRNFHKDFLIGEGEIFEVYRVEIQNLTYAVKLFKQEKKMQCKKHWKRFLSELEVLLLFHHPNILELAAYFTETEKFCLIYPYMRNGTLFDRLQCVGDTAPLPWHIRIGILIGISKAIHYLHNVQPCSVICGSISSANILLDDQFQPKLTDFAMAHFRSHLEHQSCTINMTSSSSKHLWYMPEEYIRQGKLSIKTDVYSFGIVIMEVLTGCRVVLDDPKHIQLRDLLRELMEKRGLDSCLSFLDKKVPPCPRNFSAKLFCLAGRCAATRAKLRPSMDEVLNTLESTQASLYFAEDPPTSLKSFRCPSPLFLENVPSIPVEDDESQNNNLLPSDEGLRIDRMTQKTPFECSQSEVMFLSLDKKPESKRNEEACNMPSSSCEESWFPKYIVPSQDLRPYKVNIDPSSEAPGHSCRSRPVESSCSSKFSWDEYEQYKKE
T32 sequence (Q9UKE5 whole entry): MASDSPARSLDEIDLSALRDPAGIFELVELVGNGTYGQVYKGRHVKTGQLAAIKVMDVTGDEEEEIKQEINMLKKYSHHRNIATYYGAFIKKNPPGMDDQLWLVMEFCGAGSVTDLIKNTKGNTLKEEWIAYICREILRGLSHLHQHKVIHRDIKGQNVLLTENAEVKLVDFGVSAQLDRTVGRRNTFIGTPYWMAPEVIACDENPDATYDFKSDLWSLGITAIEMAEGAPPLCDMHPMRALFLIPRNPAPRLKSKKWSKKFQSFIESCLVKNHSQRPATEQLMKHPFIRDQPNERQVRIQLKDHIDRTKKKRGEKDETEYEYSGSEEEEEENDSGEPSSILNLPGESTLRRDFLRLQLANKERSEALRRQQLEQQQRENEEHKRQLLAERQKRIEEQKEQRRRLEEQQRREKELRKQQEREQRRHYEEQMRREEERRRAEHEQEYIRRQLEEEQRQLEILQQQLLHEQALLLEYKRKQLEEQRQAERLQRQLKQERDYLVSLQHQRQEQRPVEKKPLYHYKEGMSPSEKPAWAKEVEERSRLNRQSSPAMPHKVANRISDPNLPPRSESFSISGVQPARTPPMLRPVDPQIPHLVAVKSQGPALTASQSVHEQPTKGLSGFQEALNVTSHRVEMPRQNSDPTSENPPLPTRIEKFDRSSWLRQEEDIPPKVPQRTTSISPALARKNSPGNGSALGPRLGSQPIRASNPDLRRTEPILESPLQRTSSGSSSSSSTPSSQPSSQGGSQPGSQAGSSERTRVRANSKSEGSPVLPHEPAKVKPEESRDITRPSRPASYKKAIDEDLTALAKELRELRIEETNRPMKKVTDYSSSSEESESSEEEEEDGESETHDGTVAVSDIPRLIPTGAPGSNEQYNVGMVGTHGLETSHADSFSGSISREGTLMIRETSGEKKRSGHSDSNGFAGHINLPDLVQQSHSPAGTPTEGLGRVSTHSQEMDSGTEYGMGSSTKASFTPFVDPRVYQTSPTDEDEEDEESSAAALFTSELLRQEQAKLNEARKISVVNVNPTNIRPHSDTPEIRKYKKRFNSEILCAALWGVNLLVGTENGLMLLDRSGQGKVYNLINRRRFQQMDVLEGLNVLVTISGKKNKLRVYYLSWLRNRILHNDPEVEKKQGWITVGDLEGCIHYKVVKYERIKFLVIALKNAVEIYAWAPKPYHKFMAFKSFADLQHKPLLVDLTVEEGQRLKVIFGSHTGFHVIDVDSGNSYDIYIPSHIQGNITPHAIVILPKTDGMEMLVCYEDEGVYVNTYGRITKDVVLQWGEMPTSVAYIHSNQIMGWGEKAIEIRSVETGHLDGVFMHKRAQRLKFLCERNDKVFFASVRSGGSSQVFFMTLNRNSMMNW
T31 sequence (Q86UE8 whole entry): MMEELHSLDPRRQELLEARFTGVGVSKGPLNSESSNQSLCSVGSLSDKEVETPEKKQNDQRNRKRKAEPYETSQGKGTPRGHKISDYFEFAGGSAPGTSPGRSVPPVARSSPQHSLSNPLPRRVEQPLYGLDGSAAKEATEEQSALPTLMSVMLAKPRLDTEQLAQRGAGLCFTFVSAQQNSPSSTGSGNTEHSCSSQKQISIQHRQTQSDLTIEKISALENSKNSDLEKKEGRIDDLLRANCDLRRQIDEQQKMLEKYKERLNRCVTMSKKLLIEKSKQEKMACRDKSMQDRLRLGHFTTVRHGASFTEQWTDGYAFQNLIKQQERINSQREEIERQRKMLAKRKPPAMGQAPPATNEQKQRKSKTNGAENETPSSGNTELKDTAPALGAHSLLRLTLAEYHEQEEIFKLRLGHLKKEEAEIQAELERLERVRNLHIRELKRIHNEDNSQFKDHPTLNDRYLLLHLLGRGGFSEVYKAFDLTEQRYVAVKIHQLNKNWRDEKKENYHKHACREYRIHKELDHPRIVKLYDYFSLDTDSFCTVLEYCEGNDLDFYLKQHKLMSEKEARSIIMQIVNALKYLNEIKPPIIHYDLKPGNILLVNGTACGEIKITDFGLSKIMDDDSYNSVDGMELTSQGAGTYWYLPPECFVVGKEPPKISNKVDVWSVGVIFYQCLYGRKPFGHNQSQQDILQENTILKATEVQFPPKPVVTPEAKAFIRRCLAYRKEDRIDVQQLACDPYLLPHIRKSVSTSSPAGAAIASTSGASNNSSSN
T4 sequence (Q00535 whole entry): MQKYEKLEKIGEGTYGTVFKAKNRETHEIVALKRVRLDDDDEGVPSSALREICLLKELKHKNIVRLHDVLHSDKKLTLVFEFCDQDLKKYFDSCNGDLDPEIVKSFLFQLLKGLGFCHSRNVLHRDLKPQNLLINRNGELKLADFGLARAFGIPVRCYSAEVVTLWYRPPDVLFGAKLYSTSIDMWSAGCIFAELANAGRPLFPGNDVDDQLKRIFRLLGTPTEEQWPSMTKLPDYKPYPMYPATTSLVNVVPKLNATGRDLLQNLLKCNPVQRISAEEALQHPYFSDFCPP
T11 sequence (O60674 840-1132 limits assumed): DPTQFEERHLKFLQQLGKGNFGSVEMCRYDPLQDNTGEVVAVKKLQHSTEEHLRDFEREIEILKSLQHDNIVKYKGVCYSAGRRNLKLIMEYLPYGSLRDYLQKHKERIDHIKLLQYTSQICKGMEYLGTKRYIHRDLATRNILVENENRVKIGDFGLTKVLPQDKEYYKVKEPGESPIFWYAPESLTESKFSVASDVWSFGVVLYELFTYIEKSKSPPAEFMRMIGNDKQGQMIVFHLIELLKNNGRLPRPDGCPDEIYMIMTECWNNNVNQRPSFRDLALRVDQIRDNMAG

## CC(C)c1ccc(CC(=O)N2CCN(c3ccc(C#N)nn3)CC2)cc1 [PZ-2891, 6-(4-(2-(4-isopropylphenyl)acetyl)piperazin-1-yl)pyridazine-3-carbonitrile]
ADCK3
  remaining binding at 10 µM: 100%
AKT3
  remaining binding at 10 µM: 82%
BMPR2
  remaining binding at 10 µM: 87%
CDK5
  remaining binding at 10 µM: 87%
CLK3
  remaining binding at 10 µM: 93%
CTK
  remaining binding at 10 µM: 77%
FLT3(R834Q)
  remaining binding at 10 µM: 100%
GSK3B
  remaining binding at 10 µM: 74%
IRAK3
  remaining binding at 10 µM: 42%
ITK
  remaining binding at 10 µM: 89%
[1]
  remaining binding at 10 µM: 88%
JNK1
  remaining binding at 10 µM: 62%
LTK
  remaining binding at 10 µM: 75%
MAP3K1
  remaining binding at 10 µM: 89%
MAP3K4
  remaining binding at 10 µM: 93%
MARK1
  remaining binding at 10 µM: 77%
MEK6
  remaining binding at 10 µM: 94%
MRCKA
  remaining binding at 10 µM: 92%
MYO3B
  remaining binding at 10 µM: 88%
PAK2
  remaining binding at 10 µM: 44%
PAK7
  remaining binding at 10 µM: 73%
PFCDPK1(P.falciparum)
  remaining binding at 10 µM: 97%
PFTK1
  remaining binding at 10 µM: 92%
PKAC-alpha
  remaining binding at 10 µM: 87%
PRKCI
  remaining binding at 10 µM: 83%
PRKD2
  remaining binding at 10 µM: 82%
PRP4
  remaining binding at 10 µM: 86%
[2]
  remaining binding at 10 µM: 97%
SRMS
  remaining binding at 10 µM: 72%
TBK1
  remaining binding at 10 µM: 60%
TLK2
  remaining binding at 10 µM: 98%
TNIK
  remaining binding at 10 µM: 91%
VRK2
  remaining binding at 10 µM: 70%
WNK1
  remaining binding at 10 µM: 100%
PAMPA-BBB
  Papp: 52 ×10⁻⁶ cm/s
[3]; intravenous, 2 mg/kg, mice plasma, read-out: T1/2 (mice plasma)
  half-life: 17 min
[3]; plasma, iv, i.v. 2 mg/kg
  AUC(0-inf): 611 ng·h/mL
  AUC(0-t): 609 ng·h/mL
  clearance: 54.5 mL/min/kg
[3]; plasma, iv, i.v. 2 mg/kg, back extrapolated concentration
  C0: 2810 ng/mL
[3]; plasma, iv, i.v. 2 mg/kg, read-out: T1/2 (converted)
  half-life: 16.8 min
[3]; plasma, iv, i.v. 2 mg/kg, read-out: Vss
  Vd: 0.94 L/kg
[3]; plasma, po, p.o. 10 mg/kg
  AUC(0-inf): 1420 ng·h/mL
  AUC(0-t): 1400 ng·h/mL
  Cmax: 1890 ng/mL
  Tmax: 15 min
GRK3
  Kd: > 30 µM
